Data: patent US5929099A, “Pharmaceutical composition for inhibiting the growth of cancers” (Procter & Gamble Co., priority 1996, dated 1999)
Values after ≈ are worked out from the molar mass of the structure shown. Read-outs that look alike come from different tables or passages of the source.

What was measured:
[1] = test system: HIV; assay: In vitro acute model for HIV, viral replication; format: cell-based; conditions: Human immunodeficiency virus 1, 1 μg/ml, read-out: inhibited viral replication
Procedure: In an in vitro acute model for HIV carbendazim inhibited viral replication by 100% at 4 μg/ml and AZT inhibited viral replication by 98% at 1 μg/ml. Thiabendazole inhibited viral replication by 98% at 60 μg/ml.

[2] = test system: HIV-1; assay: HIV chronic study, therapeutic index
Procedure: Chronic HIV-1 infected cells U1 were derived from an acute HIV-1 infection of the promonocytic cell line, U937. The chronic HIV-1 infected cells, ACH-2 were derived from an acute HIV-1 infection of the T cell line, A3.01.
These cells were cultured in medium and the phorbol ester, PMA. […] Cell viability was measured when these cell lines were treated with the test compounds.
In addition, the number of institute positive HIV mRNA expressing cells per microscopic field is measured. Comparisons can be made from these numbers since the same number of cells were adhered to the glass slides for each drug concentration (10×10^6 cells/ml).

[3] = test system: HIV-1 in chronic infected U1 cells (HIV monocytes); assay: HIV chronic study, monocyte HIV replication; format: cell-based; conditions: Human immunodeficiency virus 1, Monocyte; 1 μg/ml; positive control; read-out: suppressed HIV monocytes replication
Procedure: (§1) These cells were treated with test samples.

[4] = test system: HIV-1 in chronic infected ACH-2 cells (T-cell); assay: HIV chronic study, T-cell HIV replication; format: cell-based; conditions: Human immunodeficiency virus 1, ACH-2; positive control AZT (1 μg/ml); read-out: suppressed T-cell HIV replication
Procedure: as §1

[5] = test system: A549 lung tumor cells; assay: MTT cell viability, lung tumor cells (Table 1); format: cell-based; conditions: Homo sapiens, A549, 120 h, approx. 5 days, read-out: EC-50 Result
Procedure: (§2) The following cell culture tests were performed to test the toxicity of the benzimidazole compounds on colon, breast and lung human tumor cells. The viability of the cells were tested by looking at MTT (3-[4,5-dimethylthiazol-2-yl]-2,5-diphenyltetrazolium bromide) reduction. MTT assay is a well known measure of cell viability.
(§3) The colon tumor cells (HT29 from American Type Culture Collection (ATCC)) and the breast cells (MX1 from cell lines from ATCC) were cultured in Eagle's Miminal Essential Medium with 10% fetal bovine serum. The lung tumor cells (A549 from ATCC cell lines) were cultured in Ham's F12 medium with 10% fetal bovine serum.
(§4) The tumor cells were passaged and seeded into culture flasks at the desired cell densities. The culture medium was decanted and the cell sheets were washed twice with phosphate buffered saline (PBS). The cells were trypsinized and triturated prior to seeding the flasks. Unless otherwise indicated the cultures were incubated at 37±1° C. in a humidified atmosphere of 5±1% carbon dioxide in air. The cultures were incubated until they were 50-80% confluent.
(§5) The cells were subcultured when the flasks were subconfluent. The medium was aspirated from the flasks and the cell sheets rinsed twice with PBS. Next, the Trypsin Solution was added to each flask to cover the cell sheet. The Trypsin Solution was removed after 30-60 seconds and the flasks were incubated at room temperature for two to six minutes. When 90% of the cells became dislodged, growth medium was added. The cells were removed by trituration and transferred to a sterile centrifuge tube. The concentration of cells in the suspension was determined, and an appropriate dilution was made to obtain a density of 5000 cells/ml. The cells were subcultured into the designated wells of the 96-well bioassay plates (200 microliter cell suspension per well). PBS was added to all the remaining wells to maintain humidity. The plates were then incubated overnight before test article treatment.
(§6) Each dose of test article was tested by treating quadruplicate wells of cultures with 100 microliter of each dilution. Those wells designated as solvent controls received an additional 100 microliter of methanol control; negative controls wells received an additional 100 microliters of treatment medium. PBS was added to the remaining wells not treated with test article or medium. The plates were then incubated for approximately 5 days.
(§7) At the end of the 5 day incubation, each dose group was examined microscopically to assess toxicity. A 0.5 mg/ml dilution of MTT was made in treatment medium, and the dilution was filtered through a 0.45 micrometer filter to remove undissolved crystals. The medium was decanted from the wells of the bioassy plates. Immediately thereafter, […] of the filtered MTT solution was added to all test wells except for the two untreated blank test wells. The two blank wells received 200 microliters of treatment medium. The plates were returned to the incubator for about 3 hours. After incubation, the MTT containing medium was decanted. […] was added to each well and the plates were shaken at room temperature for about 2 hours.
(§8) The absorbance at 550 mn (OD550) of each well was measured with a Molecular Devices (Menlo Park, Calif.) VMax plate reader.
(§9) The mean OD550 of the solvent control wells and that of each test article dilution, and that of each of the blank wells and the positive control were calculated. The mean OD550 of the blank wells was subtracted from the mean of the solvent control wells, and test article wells, respectively to give the corresponding mean OD550. [formula]
(§10) Dose response curves were prepared as semi-log plots with % of control on the ordinate (linear) and the test article concentration on the abscissa (logarithmic). The EC50 was interpolated from the plots for each test article.
(§11) For the test articles administered in methanol, separate responses were prepared to correct for the methanol data. […]

[6] = test system: HT29 colon tumor cells; assay: MTT cell viability, colon tumor cells (Table 1); format: cell-based; conditions: Homo sapiens, HT-29, 120 h, approx. 5 days, read-out: EC-50 Result
Procedure: as §2, §3, §4, §5, §6, §7, §8, §9, §10, §11

[7] = test system: MX1 breast tumor cells; assay: MTT cell viability, breast tumor cells (Table 1); format: cell-based; conditions: Homo sapiens, 120 h, approx. 5 days, read-out: EC-50 Result
Procedure: as §2, §3, §4, §5, §6, §7, §8, §9, §10, §11

[8] = Toxicity to normal healthy cells (Table 2); format: cell-based; conditions: read-out: EC-50 (the source's name)
From the text: The EC50 is the concentration at which one half of the cells are killed.
In normal healthy cells, the following results were obtained.

[9] = test system: colon, breast and lung human tumor cells; assay: Colon, breast and lung tumor cells test, overall comparison; format: cell-based; conditions: positive control, in all cases
Procedure: as §2, §3
The tumor cells were passaged and seeded into culture flasks at the desired cell densities. The culture medium was decanted and the cell sheets were washed twice with phosphate buffered saline (PBS). The cells were trypsinized and triturated prior to seeding the flasks. […]
The cells were subcultured when the flasks were subconfluent. […] The concentration of cells in the suspension was determined, and an appropriate dilution was made to obtain a density of 5000 cells/ml. […]
as §8
The mean OD550 of the solvent control wells and that of each test article dilution, and that of each of the blank wells and the positive control were calculated. […]

[10] = test system: melanoma; assay: In vivo mouse model for melanoma, combination with Navelbine, survival time

Cc1cn([C@H]2C[C@H](N=[N+]=[N-])[C@@H](CO)O2)c(=O)[nH]c1=O [AZT]
inhibition at 1 µg/mL [1]: 98%
therapeutic index (TI), the ratio of the toxic dose of drug to efficacious dose of drug [2]: 12, 500
inhibition at 1 µg/mL [3]: 98%
inhibition at 1 µg/mL [4]: 60%

COc1cccc2c1C(=O)c1c(O)c3c(c(O)c1C2=O)C[C@@](O)(C(=O)CO)C[C@@H]3O[C@H]1C[C@H](N)[C@H](O)[C@H](C)O1 [Adriamycin]
IC50 ([5]; A549, first column): 0.03 µg/mL (≈ 0.0552 µM)
IC50 ([5]; A549, second column): 0.009 µg/mL (≈ 0.0166 µM)
IC50 ([6]; HT29, first column): 0.03 µg/mL (≈ 0.0552 µM)
IC50 ([6]; HT29, second column): 0.006 µg/mL (≈ 0.011 µM)
IC50 ([7]; MX1, first column): 0.02 µg/mL (≈ 0.0368 µM)
IC50 ([7]; MX1, second column): 0.001 µg/mL (≈ 0.00184 µM)
CC50 ([8]; bronchial cells, Broncheal Cells, first value): 0.015 µg/mL (≈ 0.0276 µM)
CC50 ([8]; bronchial cells, Broncheal Cells, second value): 0.002 µg/mL (≈ 0.00368 µM)
CC50 ([8]; fibroblasts, first value): 0.065 µg/mL (≈ 0.12 µM)
CC50 ([8]; fibroblasts, second value): 0.1 µg/mL (≈ 0.184 µM)
CC50 ([8]; kerotinoyle cells, first value): 0.0035 µg/mL (≈ 0.00644 µM)
CC50 ([8]; kerotinoyle cells, second value): 0.0093 µg/mL (≈ 0.0171 µM)
toxicity relative to the test materials [9]: more toxic than any of the test materials by one or two logs

CCC1=C[C@@H]2CN(C1)Cc1c([nH]c3ccccc13)[C@@](C(=O)OC)(c1cc3c(cc1OC)N(C)[C@H]1[C@@](O)(C(=O)OC)[C@H](OC(C)=O)[C@]4(CC)C=CCN5CC[C@]31[C@@H]54)C2 [Navelbine]
% increase in survival time vs. untreated mice ([10]; Navelbine alone 0.5 mg/kg): 190%
% increase in survival time vs. untreated mice ([10]; Navelbine alone 1.0 mg/kg): 245%
% increase in survival time vs. untreated mice ([10]; Navelbine alone 2.0 mg/kg): 265%
